Assay results as given in the supplement of paper PMC11061612.

Legend:
Assay in all cases: Bliss excess, mean over the matrix (fraction); higher = more synergy
GI-1 (Glioblastoma) = tested on: GI-1 (Glioblastoma)
Method in brief: (§1)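 Cell lines in DMEM/F12 or RPMI with 10% FBS were plated in 1536-well plates, held 24 hours at 37°C, 5% CO2, then given two-drug dose matrices for 72 hours (DMSO typically 0.2%). Viability was read by CellTiter-Glo 2.0 luminescence and scaled as inhibition from 0 (vehicle wells) to 1 (blank wells). Combination Emax is the second-highest inhibition in the matrix; Bliss excess is observed combination effect minus expected EA + EB − EA·EB, EA and EB being single-agent effects.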

[1] = tested on: NCI-H2347 (Lung Adenocarcinoma)
Method in brief: as §1

EW-18 (Ewing's Sarcoma) = tested on: EW-18 (Ewing's Sarcoma)
Method in brief: as §1

[2] = tested on: NCI-H513 (Other Solid Carcinomas)
Method in brief: as §1

[3] = tested on: HSC-2 (Oral Cavity Carcinoma)
Method in brief: as §1

[4] = tested on: NCI-N87 (Gastric Carcinoma)
Method in brief: as §1

[5] = tested on: BV-173 (Chronic Myelogenous Leukemia)
Method in brief: as §1

[6] = tested on: SCC-3 (B-Cell Non-Hodgkin's Lymphoma)
Method in brief: as §1

[7] = tested on: NCI-H1573 (Lung Adenocarcinoma)
Method in brief: as §1

[8] = tested on: JHH-7 (Hepatocellular Carcinoma)
Method in brief: as §1

[9] = tested on: OCUM-1 (Gastric Carcinoma)
Method in brief: as §1

[10] = tested on: KP-2 (Pancreatic Carcinoma)
Method in brief: as §1

EW-3 (Ewing's Sarcoma) = tested on: EW-3 (Ewing's Sarcoma)
Method in brief: as §1

[11] = tested on: MFE-319 (Endometrial Carcinoma)
Method in brief: as §1

NH-12 (Neuroblastoma) = tested on: NH-12 (Neuroblastoma)
Method in brief: as §1

[12] = tested on: HC-1 (Other Blood Carcinomas)
Method in brief: as §1

RPMI-7951 (Melanoma) = tested on: RPMI-7951 (Melanoma)
Method in brief: as §1

[13] = tested on: KYSE-150 (Esophageal Squamous Cell Carcinoma)
Method in brief: as §1

[14] = tested on: PF-382 (T-Lymphoblastic Leukemia)
Method in brief: as §1

[15] = tested on: TGBC11TKB (Gastric Carcinoma)
Method in brief: as §1

| Compound | Bliss excess (GI-1 (Glioblastoma)) | Bliss excess [1] | Bliss excess (EW-18 (Ewing's Sarcoma)) | Bliss excess [2] | Bliss excess [3] | Bliss excess [4] | Bliss excess [5] | Bliss excess [6] | Bliss excess [7] | Bliss excess [8] | Bliss excess [9] | Bliss excess [10] | Bliss excess (EW-3 (Ewing's Sarcoma)) | Bliss excess [11] | Bliss excess (NH-12 (Neuroblastoma)) | Bliss excess [12] | Bliss excess (RPMI-7951 (Melanoma)) | Bliss excess [13] | Bliss excess [14] | Bliss excess [15] |
| --- | --- | --- | --- | --- | --- | --- | --- | --- | --- | --- | --- | --- | --- | --- | --- | --- | --- | --- | --- | --- |
| CC1(C)CCC(CN2CCN(c3ccc(C(=O)NS(=O)(=O)c4ccc(NCC5CCOCC5)c([N+](=O)[O-])c4)c(Oc4cnc5[nH]ccc5c4)c3)CC2)=C(c2ccc(Cl)cc2)C1 [Venetoclax] + CN(C)CCCOc1ccc(-c2ccc3ncc4c(c3c2)n(C2CCOCC2)c(=O)n4C)cn1 [AZD0156] (first compound max 1 µM, 7x7, partner max 1 µM) | 0.0106 | -0.0488 | 0.0697 | -0.0142 | 0.0307 | -0.0763 | -0.0598 | 0.0194 | -0.0249 | -0.032 | -0.0257 | -0.0193 | 0.032 | 0.0513 | -0.0978 | -0.0244 | 0 | -0.0356 | 0.0446 | -0.0022 |
| Cc1c2c(nn1C)CSCc1cc(n(C)n1)CSc1cc(c3ccccc3c1)OCCCc1c(C(=O)O)n(C)c3c-2c(Cl)ccc13 [AZD5991] + C[C@@H](Nc1cc(F)cc(F)c1)c1cc(C(=O)N(C)C)cc2c(=O)cc(N3CCOCC3)oc12 [AZD8186] (first compound max 1 µM, 7x7, partner max 3 µM) | 0.0556 | 0.0251 | 0.0122 | 0.0221 | 0.0042 | -0.0181 | -0.0917 | -0.0036 | -0.0303 | -0.0439 | -0.0302 | 0.0193 | -0.0129 | 0.0209 | 0.0311 | 0.0381 | 0.0878 | -0.0127 | 0.005 | 0.0005 |
| CN(C)CCCOc1ccc(-c2ccc3ncc4c(c3c2)n(C2CCOCC2)c(=O)n4C)cn1 [AZD0156] + CCN(CCO)CCCOc1ccc2c(Nc3cc(CC(=O)Nc4cccc(F)c4)[nH]n3)ncnc2c1 [AZD2811] (first compound max 1 µM, 7x7, partner max 1 µM) | 0.0555 | -0.0299 | -0.0219 | -0.0019 | 0.0232 | 0.0046 | -0.0331 | 0.112 | -0.0157 | -0.0296 | 0.032 | -0.0086 | -0.0458 | -0.0431 | -0.0263 | -0.008 | -0.0152 | -0.0382 | -0.0115 | 0.0298 |
| Cc1c2c(nn1C)CSCc1cc(n(C)n1)CSc1cc(c3ccccc3c1)OCCCc1c(C(=O)O)n(C)c3c-2c(Cl)ccc13 [AZD5991] + CC1(C)CCC(CN2CCN(c3ccc(C(=O)NS(=O)(=O)c4ccc(NCC5CCOCC5)c([N+](=O)[O-])c4)c(Oc4cnc5[nH]ccc5c4)c3)CC2)=C(c2ccc(Cl)cc2)C1 [Venetoclax] (first compound max 1 µM, 7x7, partner max 1 µM) | 0.0476 | -0.0188 | 0.046 | -0.0072 | 0.0693 | -0.0041 | 0.0178 | 0.017 | -0.036 | 0.0183 | -0.0182 | 0.0157 | 0.125 | 0.0377 | 0.139 |  | -0.0568 | -0.0324 | 0.0223 | 0.0364 |
| COc1cccc(OCCCN)c1-c1cc(Nc2cnc(C#N)cn2)n[nH]1 [Prexasertib] + CN(C)CCCOc1ccc(-c2ccc3ncc4c(c3c2)n(C2CCOCC2)c(=O)n4C)cn1 [AZD0156] (first compound max 1 µM, 7x7, partner max 1 µM) | 0.0084 | -0.0178 | 0.021 | -0.0071 | -0.0532 | -0.0381 | -0.0676 | 0.0103 | -0.0309 | -0.021 | 0.0558 | -0.0286 | -0.0437 | -0.0129 | 0.0111 | -0.0134 | -0.0165 | -0.0386 | -0.0448 | -0.0009 |
| COc1cccc(OCCCN)c1-c1cc(Nc2cnc(C#N)cn2)n[nH]1 [Prexasertib] + O=C(c1cc(Cc2n[nH]c(=O)c3ccccc23)ccc1F)N1CCN(C(=O)C2CC2)CC1 [Olaparib] (first compound max 1 µM, 7x7, partner max 10 µM) | -0.0364 | -0.0407 | -0.0677 | -0.0162 | -0.0206 | -0.127 | 0.0169 | -0.0133 | 0.0418 | -0.0795 | -0.0645 | -0.0682 | -0.0378 | -0.0891 | -0.0746 | 0.0035 | -0.0358 | 0.0491 | -0.017 | -0.0658 |
| NC1(C(=O)N[C@@H](CCO)c2ccc(Cl)cc2)CCN(c2ncnc3[nH]ccc23)CC1 [Capivasertib] + Cn1cnc2c(F)c(Nc3ccc(Br)cc3Cl)c(C(=O)NOCCO)cc21 [Selumetinib] (first compound max 10 µM, 7x7, partner max 10 µM) | 0.0399 | -0.0158 | -0.0219 | -0.0383 | 0.0675 | 0.01 | 0.0219 | 0.0627 | 0.0019 | -0.0455 | -0.0299 | 0.0094 | -0.0091 | 0.0088 | 0.0644 | 0.0123 | -0.0415 | 0.0676 | 0.0266 | 0.0387 |
| CCN(CCO)CCCOc1ccc2c(Nc3cc(CC(=O)Nc4cccc(F)c4)[nH]n3)ncnc2c1 [AZD2811] + O=C(c1cc(Cc2n[nH]c(=O)c3ccccc23)ccc1F)N1CCN(C(=O)C2CC2)CC1 [Olaparib] (first compound max 1 µM, 7x7, partner max 10 µM) | 0.0685 | -0.0303 | -0.0534 | -0.0203 | 0.0524 | 0.0237 | -0.0212 | 0.0494 | -0.016 | 0.0118 | 0.0383 | -0.0123 | -0.103 | 0.0376 | 0.0109 | 0.0928 | 0.0463 | 0.0291 | -0.0335 | 0.0524 |
| Cc1c2c(nn1C)CSCc1cc(n(C)n1)CSc1cc(c3ccccc3c1)OCCCc1c(C(=O)O)n(C)c3c-2c(Cl)ccc13 [AZD5991] + Cc1cc2ncnn2cc1Nc1ncc2c(n1)n(C1CCOCC1)c(=O)n2C [AZD7648] (first compound max 1 µM, 7x7, partner max 10 µM) | 0.0021 | -0.0472 | -0.0254 | -0.0127 |  | -0.0367 | -0.0512 | -0.0119 | 0.0523 | -0.0598 | -0.0093 | -0.0103 | -0.0626 | -0.0534 | -0.061 | -0.024 | -0.0317 | -0.0195 | 0.038 | -0.0954 |
| C[C@@H](c1ccc2nccn2c1)n1nnc2ncc(-c3cnn(C)c3)nc21 [Savolitinib] + CN(CC[C@H](CSC1=CC=CC=C1)NC2=C(C=C(C=C2)S(=O)(=O)NC(=O)C3=CC=C(C=C3)N4CCC(CC4)[C@H](C5=CC=CC=C5C6=CC=C(C=C6)Cl)O)S(=O)(=O)C(F)(F)F)CCO [AZD4320] (first compound max 1 µM, 7x7, partner max 1 µM) |  | -0.0474 | -0.0221 | -0.0473 |  |  | -0.0004 | -0.0083 | -0.0473 |  |  | -0.0136 |  | -0.0736 | -0.0131 | -0.0254 | -0.0203 | -0.0775 | -0.0665 |  |
| COc1nnc2ccc(N3CCC(c4ccc(OCCN5CCN(C)C(=O)[C@H]5C)cc4)CC3)nn12 [AZD5153] + CN(CC[C@H](CSC1=CC=CC=C1)NC2=C(C=C(C=C2)S(=O)(=O)NC(=O)C3=CC=C(C=C3)N4CCC(CC4)[C@H](C5=CC=CC=C5C6=CC=C(C=C6)Cl)O)S(=O)(=O)C(F)(F)F)CCO [AZD4320] (first compound max 1 µM, 7x7, partner max 1 µM) |  | -0.042 | 0.0033 | -0.0177 |  |  | -0.0879 | 0.0235 | 0.0178 |  |  | 0.0546 |  | -0.0369 | -0.0413 | -0.0468 | 0.0467 | 0.0321 | 0.0343 |  |
| CC(=O)c1c(C)c2cnc(Nc3ccc(N4CCNCC4)cn3)nc2n(C2CCCC2)c1=O [Palbociclib] + CN(CC[C@H](CSC1=CC=CC=C1)NC2=C(C=C(C=C2)S(=O)(=O)NC(=O)C3=CC=C(C=C3)N4CCC(CC4)[C@H](C5=CC=CC=C5C6=CC=C(C=C6)Cl)O)S(=O)(=O)C(F)(F)F)CCO [AZD4320] (first compound max 10 µM, 7x7, partner max 1 µM) |  | -0.109 | -0.0118 | -0.0718 |  |  | -0.0524 | -0.0046 | -0.109 |  |  | -0.0731 |  | -0.0554 | 0.0594 | 0.0001 | 0.0312 | -0.109 | -0.0062 |  |
| Cc1c2c(nn1C)CSCc1cc(n(C)n1)CSc1cc(c3ccccc3c1)OCCCc1c(C(=O)O)n(C)c3c-2c(Cl)ccc13 [AZD5991] + C=CCn1c(=O)c2cnc(Nc3ccc(N4CCN(C)CC4)cc3)nc2n1-c1cccc(C(C)(C)O)n1 [AZD1775] (first compound max 1 µM, partner max 1 µM) | -0.0109 | -0.0393 | -0.0102 | -0.003 | -0.0132 | -0.0275 | -0.072 | 0.0088 | -0.0248 | 0.0348 | -0.0148 | 0.0069 | 0.017 | 0.0074 | -0.0549 | 0.0432 |  | 0.0496 | -0.0314 | -0.0383 |
| CS(=O)(=O)CCNCc1ccc(-c2ccc3ncnc(Nc4ccc(OCc5cccc(F)c5)c(Cl)c4)c3c2)o1 [Lapatinib] + NC1(c2ccc(-c3nc4ccn5c(=O)[nH]nc5c4cc3-c3ccccc3)cc2)CCC1 [MK-2206] (first compound max 10 µM, 7x7, partner max 10 µM) | 0.0275 | -0.0315 |  | -0.0369 | 0.0806 | 0.0091 |  |  | -0.0055 | -0.036 | -0.0313 |  | 0.0455 | -0.0155 |  |  |  | 0.0159 | -0.0144 | -0.0334 |
| Cc1c2c(nn1C)CSCc1cc(n(C)n1)CSc1cc(c3ccccc3c1)OCCCc1c(C(=O)O)n(C)c3c-2c(Cl)ccc13 [AZD5991] + C1CN(CCC1(C(=O)N[C@@H](CCO)C2=CC=C(C=C2)Cl)N)C3=NC=NC4=C3C=CN4 [Capivasertib] (first compound max 1 µM, 7x7, partner max 3 µM) | 0.045 | -0.0313 |  | -0.0056 | 0.138 | -0.0516 | -0.0621 | 0.102 | 0.0057 | -0.0118 | -0.0032 | -0.01 | 0.0032 | 0.111 | 0.0395 | -0.0475 | 0.0035 | 0.039 | -0.0203 | 0.0116 |
